# Measurements: article PMC12910498 (ACS pharmacology & translational science, 2026)
# Like-named read-outs stand apart in the source and are kept apart here.
# Key:
# [1] = Phase I metabolic stability in rat liver microsomes (with NADPH); assay type: in vitro ADME; conditions: pH 7.4, presence of NADPH, mean ± SD, n = 3
# Method: (§1) We evaluated the Phase I metabolic stability of compounds 2−7 and 14−19 using rat and human liver microsomes, as previously described.[45]
# (§2) Phase I metabolic stability assays were conducted using rat and human liver microsomes as previously described[45],[70] with minor modifications. In brief, the reactions were carried out with 100 mM potassium phosphate buffer, pH 7.4, in the presence of NADPH regenerating system (1.3 mM NADPH, 3.3 mM glucose 6-phosphate, 3.3 mM MgCl2, 0.4 U/mL glucose-6-phosphate dehydrogenase, 50 μM sodium citrate). Negative controls without cofactors were assessed to determine the non-CYP-mediated metabolism. Compound disappearance was monitored over time using a liquid chromatography and tandem mass spectrometry (LC/MS) method. All reactions were performed in triplicate.
# (§3) Chromatographic analysis was performed on a Dionex ultra high-performance LC system coupled with Q Exactive Focus orbitrap mass spectrometer (Thermo Fisher Scientific Inc., Waltham MA). Separation was achieved using Agilent Eclipse Plus column (100 × 2.1 mm^2 i.d.; maintained at 35 °C) packed with a 1.8 μm C18 stationary phase. […] The total run time for each analyte was 6.5 min. Pumps were operated at a flow rate of 0.3 mL/min. The mass spectrometer controlled by Xcalibur software 4.0.27.13 (Thermo Scientific) was operated with a HESI ion source in positive ionization mode. Compounds were identified in the full-scan mode (from m/z 50 to 750) by comparing t = 0 samples with t = 30 min and t = 60 min samples.
# [2] = Phase I metabolic stability in human liver microsomes (with NADPH); assay type: in vitro ADME; conditions: pH 7.4, presence of NADPH, mean ± SD, n = 3
# Method: as §1, §2, §3
# human D3R [3] = molecular target: T1, human D3R (Homo sapiens, UniProt P35462); set-up: host or cells: CHO-K1; method as in PMID 30883109; conditions: previously reported, cited from earlier work; for D3R Emax (%): agonist mode
# T1 sequence (P35462 whole entry): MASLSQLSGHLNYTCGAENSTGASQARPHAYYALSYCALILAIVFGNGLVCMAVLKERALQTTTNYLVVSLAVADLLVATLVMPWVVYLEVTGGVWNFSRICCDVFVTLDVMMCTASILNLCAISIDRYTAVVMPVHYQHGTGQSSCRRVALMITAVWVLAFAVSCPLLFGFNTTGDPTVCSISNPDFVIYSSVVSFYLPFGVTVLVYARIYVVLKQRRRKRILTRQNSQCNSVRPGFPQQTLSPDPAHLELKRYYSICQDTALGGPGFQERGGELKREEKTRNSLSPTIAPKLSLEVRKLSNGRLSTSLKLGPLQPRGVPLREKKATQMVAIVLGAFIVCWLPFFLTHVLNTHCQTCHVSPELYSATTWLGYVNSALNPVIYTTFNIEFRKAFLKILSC
# human D4R [4] = molecular target: T2, human D4R (Homo sapiens, UniProt P21917); set-up: host or cells: CHO-K1; method as in PMID 30883109; conditions: previously reported, cited from earlier work; for D4R Emax (%): agonist mode; for D4R Ant. (%): antagonist mode
# T2 sequence (P21917 1-419): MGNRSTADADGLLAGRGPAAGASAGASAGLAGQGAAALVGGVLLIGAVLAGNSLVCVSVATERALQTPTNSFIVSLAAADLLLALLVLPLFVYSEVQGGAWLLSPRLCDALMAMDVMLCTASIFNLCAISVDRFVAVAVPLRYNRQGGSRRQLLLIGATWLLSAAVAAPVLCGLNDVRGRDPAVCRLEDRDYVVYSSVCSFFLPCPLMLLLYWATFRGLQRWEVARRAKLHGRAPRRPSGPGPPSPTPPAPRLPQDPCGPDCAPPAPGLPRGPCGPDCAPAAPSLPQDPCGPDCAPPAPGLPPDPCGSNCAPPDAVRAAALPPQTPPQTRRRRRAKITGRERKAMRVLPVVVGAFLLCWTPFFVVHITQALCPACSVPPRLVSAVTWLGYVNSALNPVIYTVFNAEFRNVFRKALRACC
# human D3R [5] = molecular target: T1, human D3R; set-up: expressed in transfected cells; host or cells: HEK293; method as in PMID 30883109; conditions: HEK293 membranes, hD3R; previously reported; read-out: Ki (nM) ± SEM [3H]N-methlyspiperone D3R; cited from earlier work
# human D4R [6] = molecular target: T2, human D4R; conditions: for D4R Ant. (%): antagonist mode, 10 μM forskolin and 10 nM dopamine, normalized to spiperone; for Emax: read-out: D4R Emax (%)
# Method: We investigated the effects of the triazole linker on D4R-mediated inhibition of forskolin-stimulated cAMP accumulation. […] All compounds were tested in both agonist and antagonist modes using CHO-K1 cells stably expressing the human D4R.
# D4R-mediated inhibition of forskolin-stimulated cAMP production was assayed using the PerkinElmer LANCE Ultra cAMP assay kit (PerkinElmer, Inc., Waltham, MA). CHO-K1 cells stably expressing the human D4R were maintained in Ham’s F12 supplemented with 10% fetal bovine serum, 100 U/mL penicillin, 100 μg/mL streptomycin, 800 μg/mL G418, and 300 μg/mL hygromycin at 37 °C, 5% CO2, and 90% humidity. Cells were seeded in Hank’s balanced salt solution (with CaCl2 and MgCl2) with 5 mM HEPES buffer and 0.2 μM sodium metabisulfite at a density of 5000 cells/well in 384-well white plates. Compounds and forskolin were made in the same buffer. […] Eu-cAMP tracer and ULight-anti-cAMP solutions were added as directed by the manufacturer and cells were incubated for 2 h in the dark at room temperature, after which a time-resolved fluorescence resonance energy transfer (TR-FRET) signal was measured using a BMG Labtech PHERAstar Fs (BMG Labtech USA, Cary, NC). […] The data from each experiment was fit, as described above, with the Emax, Ant. %, EC50, and IC50 values extracted from the nonlinear regression. These values were then averaged together across experiments using descriptive statistics in Prism and reported as means ± SEM.
# [7] = Non-Phase I metabolic stability in human liver microsomes (absence of NADPH); assay type: in vitro ADME
# Method: We also evaluated the non-Phase I metabolic stability of compounds 2−7 and 14−19 using rat and human liver microsomes. […] This may represent metabolism by hydrolases that can specifically attack the amide. Evidence in support of this hypothesis is shown by the remarkable stability of all triazole analogs (14−19) in the absence of NADPH in Figure 5B,D.
# as §2
# Chromatographic analysis was performed on a Dionex ultra high-performance LC system coupled with Q Exactive Focus orbitrap mass spectrometer (Thermo Fisher Scientific Inc., Waltham MA). Separation was achieved using Agilent Eclipse Plus column (100 × 2.1 mm^2 i.d.; maintained at 35 °C) packed with a 1.8 μm C18 stationary phase. […] The total run time for each analyte was 6.5 min. […]
# [8] = Aqueous solubility (remark); assay type: physicochemical; conditions: remark in text
# human D2R long isoform = human D2R long isoform (Homo sapiens, UniProt P14416); set-up: host or cells: CHO-K1; method as in PMID 30883109; conditions: antagonist mode; previously reported; cited from earlier work
# Sequence of human D2R long isoform (P14416 whole entry, canonical isoform): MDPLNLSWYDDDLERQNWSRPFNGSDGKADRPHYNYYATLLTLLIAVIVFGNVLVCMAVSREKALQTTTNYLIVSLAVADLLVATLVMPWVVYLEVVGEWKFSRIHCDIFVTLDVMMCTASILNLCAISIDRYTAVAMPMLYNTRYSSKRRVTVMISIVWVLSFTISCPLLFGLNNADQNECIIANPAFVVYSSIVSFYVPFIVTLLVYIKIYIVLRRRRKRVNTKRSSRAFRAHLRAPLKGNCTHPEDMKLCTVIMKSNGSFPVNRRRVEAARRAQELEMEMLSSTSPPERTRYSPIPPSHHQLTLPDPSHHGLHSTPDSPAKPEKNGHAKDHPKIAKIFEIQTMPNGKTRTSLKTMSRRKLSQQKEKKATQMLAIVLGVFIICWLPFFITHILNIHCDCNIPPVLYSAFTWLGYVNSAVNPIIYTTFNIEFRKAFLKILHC
# [9] = Pharmacokinetics study in rats (plasma and brain); assay type: in vivo, Sprague−Dawley rats; conditions: rat, 5 mg/kg IP
# Method: Given their adequate in vitro stability profiles, we next evaluated the in vivo pharmacokinetic profiles of 14, 15, 17, and 18 in rats. Sprague−Dawley rats were dosed with 5 mg/kg (14, 15, 17) or 10 mg/kg (18), i.p., and plasma and brain levels of each drug were measured 0−6 h postdose.
# All animal experiments were performed following the protocols evaluated and approved by the Animal Care and Use Committee at Johns Hopkins University (Ethics Approval Number: RA24M403). Pharmacokinetic studies in Sprague−Dawley (SD) rats were conducted according to protocols approved. SD rats obtained from Harlan were maintained on a 12 h light−dark cycle with ad libitum access to food and water. Test compound was administered via i.p. injection at a dose of 10 mg/kg (100% saline vehicle, 10 mL/kg volume). The rats were sacrificed at specified time points (0.25, 0.5 h, 1, 2, 4, and 6 h) post drug administration. For the collection of plasma and brain tissue, animals were euthanized with CO2, and blood samples were collected in heparinized microtubes by cardiac puncture. Brains were dissected and immediately flash-frozen (−80 °C). Blood samples were spun at 2000g for 15 min, and plasma was removed and stored at −80 °C until analysis (as described below).
# Quantitation of triazole analogs 14, 15, 17, and 18 was performed using liquid chromatography with tandem mass spectrometry (LC/MS-MS) methods. Briefly, calibration standards were prepared using respective tissue (naïve plasma and brain) with additions of the test compounds. For quantifying the test compounds in the pharmacokinetic samples, plasma samples (20 μL) were processed using a single liquid extraction method by addition of 100 μL of acetonitrile containing internal standard (losartan: 0.5 μM), followed by vortex-mixing for 30 s and then centrifugation at 10,000g for 10 min at 4 °C. Brain tissues were diluted 1:5 w/v with acetonitrile containing losartan (0.5 μm) and homogenized, followed by vortex-mixing and centrifugation at 10,000g for 10 min at 4 °C. A 50 μL aliquot of the supernatant was diluted with 50 μL of water and transferred to 250 μL polypropylene autosampler vials sealed with Teflon caps. Two μL of the sample was injected into the LC/MS/MS system for analysis. Chromatographic analysis was performed using an Accela ultra high-performance system consisting of an analytical pump and an autosampler coupled with a TSQ Vantage mass spectrometer. […] The mobile phase consisted of 0.1% formic acid in acetonitrile and 0.1% formic acid in water with gradient elution, starting with 10% organic phase (from 0 to 1 min) linearly increasing to 95% (from 1 to 2 min), and re-equilibrating to 10% by 3 min. The total run time for each analyte was 3.5 min. Pumps were operated at a flow rate of 0.4 mL/min. […] Plasma concentrations (nmol/mL) as well as brain tissue concentrations (nmol/g) were determined and plots of mean plasma concentration versus time were constructed. Noncompartmental analysis modules in Phoenix WinNonlin version 7.0 (Certara USA, Inc., Princeton, NJ) were used to quantify exposures (AUC0−t) and half-life (t1/2).
# D1 = molecular target: T3, D1 (Homo sapiens, UniProt P21728); assay: PDSP primary screen and secondary assay, D1; assay type: binding; conditions: 10 µM compound
# T3 construct: Psychoactive Drug Screening Program (PDSP)
# T3 sequence (P21728 whole entry): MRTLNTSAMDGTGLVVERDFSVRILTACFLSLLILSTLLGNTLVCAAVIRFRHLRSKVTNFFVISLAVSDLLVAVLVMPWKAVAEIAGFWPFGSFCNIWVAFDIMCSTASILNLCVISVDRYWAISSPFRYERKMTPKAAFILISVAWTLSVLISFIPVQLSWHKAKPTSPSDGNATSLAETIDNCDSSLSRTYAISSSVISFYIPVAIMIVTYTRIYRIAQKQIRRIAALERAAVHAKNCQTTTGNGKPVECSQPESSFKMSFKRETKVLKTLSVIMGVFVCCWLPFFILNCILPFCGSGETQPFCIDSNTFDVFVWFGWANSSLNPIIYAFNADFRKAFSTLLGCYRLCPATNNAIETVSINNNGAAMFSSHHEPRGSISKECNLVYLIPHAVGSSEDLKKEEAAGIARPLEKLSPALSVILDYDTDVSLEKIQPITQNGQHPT
# Excerpt: (§4) Receptor Primary Secondary Primary Secondary Primary Secondary Primary Secondary screen assay screen assay screen assay screen assay […]
# (§5) inhibition in primary assessment.
# D5 = molecular target: T4, D5 (Homo sapiens, UniProt P21918); assay: PDSP primary screen, D5; assay type: binding; conditions: 10 µM compound
# T4 construct: Psychoactive Drug Screening Program (PDSP)
# T4 sequence (P21918 whole entry): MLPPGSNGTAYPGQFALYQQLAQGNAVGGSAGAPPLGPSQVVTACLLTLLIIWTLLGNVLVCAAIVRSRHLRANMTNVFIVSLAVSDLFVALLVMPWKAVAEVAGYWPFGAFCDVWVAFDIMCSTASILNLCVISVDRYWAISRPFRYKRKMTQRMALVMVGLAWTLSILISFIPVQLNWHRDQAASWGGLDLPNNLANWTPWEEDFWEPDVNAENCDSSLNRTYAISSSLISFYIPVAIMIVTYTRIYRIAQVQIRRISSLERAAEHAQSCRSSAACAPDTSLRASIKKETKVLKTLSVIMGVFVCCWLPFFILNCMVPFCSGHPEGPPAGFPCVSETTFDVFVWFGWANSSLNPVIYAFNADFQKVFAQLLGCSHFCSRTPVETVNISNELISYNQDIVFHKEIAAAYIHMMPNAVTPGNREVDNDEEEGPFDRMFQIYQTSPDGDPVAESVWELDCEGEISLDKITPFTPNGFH
# Excerpt: as §4, §5
# human D2LR = human D2LR (Homo sapiens, UniProt P14416); assay: biochemical
# Sequence of human D2LR (P14416 whole entry): as the sequence (P14416 whole entry, canonical isoform) above
# human D3R [10] = molecular target: T1, human D3R; assay: biochemical
# human D4R [11] = molecular target: T2, human D4R; assay: DiscoverX PathHunter β-arrestin recruitment assay, D4R
# human D4R [12] = molecular target: T2, human D4R; assay: [3H]N-methylspiperone radioligand competition binding, hD4R membranes
Structure (SMILES),half-life [1] [min],half-life [2] [min],D3R Emax (%) (human D3R [3]),IC50 (human D3R [3]; antagonist mode) [nM],D4R Emax (%) (human D4R [4]),D4R Ant. (%) (human D4R [4]),Ki (human D3R [5]) [nM],EC50 (human D4R [6]) [nM],D4R Ant. (%) (human D4R [6]; cAMP),Emax (human D4R [6]) [%],non-Phase I metabolic stability [7],IC50 (human D4R [6]) [nM],D2R Ant (%) (human D2R long isoform),other results
Cc1cccc(NC(=O)CN2CCN(c3ccccn3)CC2)c1 [Compound 2],9.92 ± 0.18,67 ± 2.41,49.4 ± 2.0,> 100000,30.7 ± 6.4,78.9 ± 3.1,> 10000,2.92 ± 0.15,16 ± 1,65 ± 3,–,–,–,–
CCc1cccc(NC(=O)CN2CCN(c3ccccn3)CC2)c1 [Compound 3],20.8 ± 1.99,249 ± 66.5,44.7 ± 5.9,–,26.2 ± 5.1,59.7 ± 4.6,–,5.38 ± 1.08,30 ± 1,59 ± 4,nonexistent,267 ± 115,–,D3R Ant. (%) (human D3R [3]; antagonist mode): 100 ± 0%
Cc1cccc(NC(=O)CN2CCN(c3ncccn3)CC2)c1 [Compound 4],26.83 ± 0.21,39.8 ± 2.16,58.4 ± 6.6,> 100000,24.7 ± 5,80.6 ± 3.0,> 10000,7.93 ± 2.12,29 ± 5,60 ± 4,–,–,–,–
Cc1cccc(NC(=O)CN2CCN(c3cccc4ccccc34)CC2)c1 [Compound 6],10.5 ± 0.03,16.6 ± 0.17,–,–,16.4 ± 3.9,96.7 ± 2.7,–,–,91 ± 7,–,relatively little non-Phase I metabolism,> 50000,100 ± 0,"aqueous solubility [8]: poor aqueous solubility; D4R average activity at the highest tested dose (human D4R [6]; cAMP, agonist mode, at 33 μM (Emax ND)): ND (16% at 33 μM)"
Cc1cccc(NC(=O)CN2CCN(c3ccc(Cl)cn3)CC2)c1 [Compound 7],9.51 ± 0.12,74.2 ± 4.56,–,–,–,–,> 50000,–,110 ± 7,–,–,2870 ± 817,100 ± 0,–
"Cc1cccc(-n2cc(CN3CCN(c4ccc(Cl)cn4)CC3)nn2)c1 [Compound 17, 1-(5-Chloropyridin-2-yl)-4-((1-(m-tolyl)-1H-1,2,3-triazol-4-yl)methyl)piperazine]",64.8 ± 2.12,46.8 ± 6.69,–,–,–,–,–,–,85 ± 1,–,–,134 ± 36.4,–,"Kp ([9]; Sprague-Dawley, brain and plasma, ip, 5 mg/kg, AUC brain/plasma, read-out: brain: Plasma ratio): 0.3; half-life ([9]; Sprague-Dawley, brain, ip, 5 mg/kg, brain, read-out: half-life (h) brain (converted)): 2.36 h; half-life ([9]; Sprague-Dawley, plasma and brain, ip, 5 mg/kg, tissue not specified, read-out: half-life (converted)): ≥ 2.1 h; half-life ([9]; Sprague-Dawley, plasma, ip, 5 mg/kg, plasma, read-out: half-life (h) plasma (converted)): 2.1 h; Tmax ([9]; Sprague-Dawley, brain, read-out: Tmax (h) brain): 0.25 h; AUC ([9]; Sprague-Dawley, plasma): 15.1 ± 1.83 µM·h; Cmax ([9]; Sprague-Dawley, plasma): 10 ± 1.27 µM; Tmax ([9]; Sprague-Dawley, plasma, read-out: Tmax (h) plasma): 0.25 h; AUC brain ([9]; brain): 4.57 ± 0.50 nmol·h/g; Cmax brain ([9]; brain): 3.04 ± 0.45 nmol/g; peak in vivo brain concentrations expected ([9]; from brain Cmax): greater than 3.0 μM; inhibition at 10 µM (D1): 16.7%; inhibition at 10 µM (D5): 6.22%; Ki (human D2LR): > 100000 nM; Ki (human D3R [10]): > 100000 nM; IC50 (human D4R [11]): 3800 ± 720 nM; D4R Ant. (%) (human D4R [11]; antagonist mode, EC80 dopamine (1 μM), normalized to spiperone): 91.6 ± 4.7%; Ki (human D4R [12]): 77.7 ± 19.9 nM; Selectivity D2R/D4R (human D4R [12]; ratio of Ki values): >1287; Selectivity D3R/D4R (human D4R [12]; ratio of Ki values): >1287"
